Data from US11337982B2, “Combined treatment with a TLR7 agonist and an HBV capsid assembly inhibitor” (Hoffmann-La Roche Inc., priority 2016, dated 2022).

Tests used:
human TLR7 = target: T1, human TLR7 (Homo sapiens, UniProt Q9NYK1); test: HEK293-Blue-hTLR-7 cells assay (SEAP reporter); assay type: cell-based; conditions: active moiety; read-out: potency to active TLR7 in HEK293-hTLR7 assay
T1 sequence (Q9NYK1 27-1049): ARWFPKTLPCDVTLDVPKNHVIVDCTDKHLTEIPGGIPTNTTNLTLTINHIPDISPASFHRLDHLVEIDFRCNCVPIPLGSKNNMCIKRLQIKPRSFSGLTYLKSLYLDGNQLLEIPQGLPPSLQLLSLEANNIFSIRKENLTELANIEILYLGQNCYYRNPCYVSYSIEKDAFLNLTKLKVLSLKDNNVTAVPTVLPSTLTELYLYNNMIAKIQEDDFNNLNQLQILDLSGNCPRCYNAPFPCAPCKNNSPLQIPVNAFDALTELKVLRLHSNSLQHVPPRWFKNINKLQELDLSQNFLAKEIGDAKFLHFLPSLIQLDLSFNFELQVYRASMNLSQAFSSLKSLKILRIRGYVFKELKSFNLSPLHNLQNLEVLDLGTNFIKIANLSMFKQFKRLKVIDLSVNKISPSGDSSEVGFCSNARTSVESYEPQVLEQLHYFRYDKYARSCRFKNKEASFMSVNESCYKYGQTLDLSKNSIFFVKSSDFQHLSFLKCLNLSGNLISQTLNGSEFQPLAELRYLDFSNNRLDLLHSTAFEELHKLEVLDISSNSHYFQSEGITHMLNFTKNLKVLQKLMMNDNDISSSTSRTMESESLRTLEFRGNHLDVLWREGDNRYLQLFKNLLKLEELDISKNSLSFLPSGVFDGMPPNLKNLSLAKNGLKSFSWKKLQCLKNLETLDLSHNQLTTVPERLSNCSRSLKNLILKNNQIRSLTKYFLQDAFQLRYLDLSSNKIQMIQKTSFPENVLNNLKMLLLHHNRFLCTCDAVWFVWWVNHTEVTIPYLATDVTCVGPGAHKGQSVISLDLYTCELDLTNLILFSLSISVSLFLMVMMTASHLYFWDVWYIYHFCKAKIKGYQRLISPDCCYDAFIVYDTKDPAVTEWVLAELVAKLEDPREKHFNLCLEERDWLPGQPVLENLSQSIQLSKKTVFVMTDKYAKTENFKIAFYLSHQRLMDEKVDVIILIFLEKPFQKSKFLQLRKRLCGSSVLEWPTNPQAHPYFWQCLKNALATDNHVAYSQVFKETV
Source text: HEK293-Blue-hTLR-7 Cells Assay:
A stable HEK293-Blue-hTLR-7 cell line was purchased from InvivoGen (Cat.#: hkb-htlr7, San Diego, Calif., USA). These cells were designed for studying the stimulation of human TLR7 by monitoring the activation of NF-κB. A reporter gene of secreted embryonic alkaline phosphatase (SEAP) was placed under the control of the IFN-β[…]minimal promoter fused to five NF-κB and AP-1-binding sites. SEAP was induced by the activation of NF-κB and AP-1 upon stimulating HEK-Blue hTLR7 cells with TLR7 ligands. SEAP activity in cell culture supernatant was determined using QUANTI-Blue™ kit (Cat.#: rep-qb1, Invivogen, San Diego, Calif., USA) at a wavelength of 640 nm. Such reporter assays have been widely used for evaluation of TLR7 agonism (Tsuneyasu Kaisho and Takashi Tanaka, Trends in Immunology, Volume 29, Issue 7, July 2008, […]; Hiroaki Hemmi et al, Nature Immunology 3, 196-200 (2002).
Specifically, HEK293-Blue-hTLR7 cells were incubated at a density of 250,000˜450,000 cells/mL in a volume of 180 μL in a 96-well plate in Dulbecco's Modified Eagle's medium (DMEM) containing 4.5 g/L glucose, 50 U/mL penicillin, […], […], 2 mM L-glutamine, 10% (v/v) heat-inactivated fetal bovine serum for 24 h. The cells were then incubated with 20 μL of test compound in a serial dilution at 37° C. in a CO2 incubator for 20 hours. Then 20 μL of the supernatant from each well was incubated with 180 μL Quanti-blue substrate solution at 37° C. for 2 hours and the absorbance was measured at 620˜655 nm using a spectrophotometer.

HBV = HBV infected transgenic mouse or humanized mouse models; cited from earlier work
[1] = Conversion of prodrug into active moiety
AAV-HBV = AAV-HBV mouse model, serum HBV biomarkers; assay type: in vivo; conditions: Compound 5 20 mg/kg QD, p.o., after 42 days of treatment
Source text: 4-week old male C57BL/6 mice, specific pathogen free, were purchased from Shanghai Laboratory Animal Center of Chinese Academy of Sciences (SLAC) and housed in an animal care facility in individually ventilated cages under controlled temperature and light conditions following the Institutional Animal Care guidelines. AAV-HBV virus was purchased from Beijing FivePlus Molecular Medicine Institute (Beijing, China). This recombinant virus carries 1.3 copies of the HBV genome, which was packaged in AAV serotype 8 (AAV8) capsids. C57BL/6 mice were injected with 200 μL of recombinant virus, diluted in saline buffer, through tail vein injection. After 3-4 weeks, animals were bled to monitor HBV genomic DNA and surface antigen (HBsAg) in serum, and then were randomly grouped according to these HBV biomarkers.
Serum HBsAg was measured using CLIA kits (Autobio Diagnostics Co., Ltd, Zhengzhou, China) according to the manufacturer's instructions. The lower limit of detection (LLOQ) for HBsAg was 0.05 IU/mL. 500-fold dilution of serum was used to obtain values within the linear range of standard curves. Serum HBV DNA was extracted using a MagNA Pure 96 DNA and Viral NA Small Volume Kit (Roche) following the manufacturer's instructions. The DNA samples were analyzed by real-time quantitative PCR (qPCR) using a HBV-specific primer and probe set for specific amplification and detection of a 128 bp HBV genome region from the nucleotide 2969 to 3096. The sequences of the primers and probe are shown as follows: […]
Anti-HBs antibody was examined in mouse serum using the anti-HBs CLIA kit (Antobio, Zhengzhou, China) according to the manufacturer's instruction with modification. ˜15 μL of the diluted (1:3) mouse serum samples were thawed at room temperature for 10 mins. 6 μL of sample was further diluted in 30 μL of PBS to make the final dilution 1:18 for the antibody test. Standard curve were prepared with monoclonal mouse antibody Anti-Hepatitis B Virus Surface Antigen (Ad/Ay) antibody [S35] (Abcam ab20402) in diluted Naive mouse serum (1:18 dilution in PBS). 1 μL of 1 mg/ml anti-HBs antibody was added into 500 μL of diluted mouse serum to make standard 1 as final concentration 2000 ng/ml. 50 μL of standard 1 then was added into 150 μL of diluted mouse serum to make standard 2 (1:4 dilution). 7 points standards were required for the test. The final concentration of standard 7 was (0.488 ng/ml). Blank serum was used as background control. 25 μL of diluted serum sample/standards/Blank was transferred into 96-well plate. Samples were incubated at room temperature for 1 hour followed by 3 times washing with 300 μL of PBST. 0.5 mg/ml of Goat anti-mouse IgG Biotinylated (Mabtech 3825-6-250) was diluted into PBS to final concentration 1 μg/ml (1:500 dilution). […] anti-mouse IgG Bio was added into plate, incubated at room temperature for 1 hour followed by 3 times washing with 300 μL of PBST. Streptavidin-HRP (Mabtech 3310-9) was diluted into PBS (1:250). 50 μL of diluted Streptavidin-HRP was incubated at room temperature for 1 hour followed by 3 times washing with 300 μL of PBST. Substrate A and substrate B (AntuBio) were mixed. 50 μL of mixture were added into plated and incubated for 10 mins before subjected to luminescence reading with Envision microplate reader. The lower limit of detection for anti HBsAb was 36 ng/mL. The anti HBsAb results were calculated from Luminescence raw data fitting on the anti HBsAb standard curve by SoftMax Pro (v5.4.1) software.
In Group 01, animals were treated with Vehicle every other day (QOD) for 42 days and served as the placebo control. In Group 02, Compound 4 was dosed once weekly (QW) at 10 mg/kg for 42 days. Compound 5 was dosed once daily (QD) at 20 mg/kg for 42 days alone in Group 03, or in combination with 10 mg/kg of Compound 4 QW in Group 04. All the test articles were administered by oral gavage (PO) with a total dose volume of 10 mL/kg. The 42-day treatment was followed by a 42-day off-treatment period. […]

[2] = Example 6, Compound 3 1 mg/kg QOW
[3] = Example 5, Compound 4 10 mg/kg QW

In the case of `CC[S@](=N)(=O)c1nc(N)c2[nH]c(=O)n(Cc3ccc(Cl)cc3)c2n1` (single isomer, unassigned) [Compound 1e-A], the EC50 (human TLR7) is reported as 71 nM.

In the case of `COC(=O)C1=C(C)NC(c2ncc(F)cc2F)=N[C@H]1c1ccc(F)cc1Cl` [Bay 41-4109], the “in vivo efficacy, HBV DNA” value (HBV) is given as “in vivo efficacy with HBV DNA reduction”.

In the case of `CCCN(C)C(=O)n1c(=O)n(Cc2ccc(Cl)cc2)c2nc([S@@](=N)(=O)CC)nc(N)c21` [Compound 1, 6-Amino-9-[(4-chlorophenyl)methyl]-2-[S(S)-ethylsulfonimidoyl]-N-methyl-8-oxo-N-propyl-purine-7-carboxamide], the “conversion of prodrug into the active moiety” value (shortened to “conversion”) [1] is reported as “efficiently converted”.

Compound `CC[S@@](=N)(=O)c1nc(N)c2[nH]c(=O)n(Cc3ccc(Cl)cc3)c2n1` [Compound 1e-B] has an EC50 (human TLR7) of 85 nM.

In the case of `CCCN(C)C(=O)n1c(=O)n(Cc2ccc(Cl)cc2)c2nc([S@](=N)(=O)CC)nc(N)c21` [Compound 2, 6-amino-9-[(4-chlorophenyl)methyl]-2-[S(R)-ethylsulfonimidoyl]-N-methyl-8-oxo-N-propyl-purine-7-carboxamide], the “conversion” value [1] is reported as “efficiently converted”.

For `CCN(C)C(=O)n1c(=O)n(Cc2ccc(Cl)cc2)c2nc([S@@](=N)(=O)CC)nc(N)c21` [Compound 3, 6-Amino-9-[(4-chlorophenyl)methyl]-N-ethyl-2-[S(S)-(ethylsulfonimidoyl)]-N-methyl-8-oxo-purine-7-carboxamide], the “conversion” value [1] was “efficiently converted”, the “HBV DNA reduction” value (AAV-HBV; [2]) was “significant reduction” and the HBsAg reduction (AAV-HBV; [2]) was “significant reduction”.

In the case of `CCCN(C)C(=O)n1c(=O)n(Cc2ccc(C)cc2)c2nc([S@](=N)(=O)CC)nc(N)c21` [Compound 4, 6-Amino-2-[S(R)-(ethylsulfonimidoyl)]-N-methyl-8-oxo-N-propyl-9-(p-tolylmethyl)purine-7-carboxamide], the “conversion” value [1] is reported as “efficiently converted”, the “HBV DNA reduction” value (AAV-HBV; [3]) is reported as “significant reduction” and the HBsAg reduction (AAV-HBV; [3]) is reported as “significant reduction”.

For `CC[S@@](=N)(=O)c1nc(N)c2[nH]c(=O)n(Cc3ccc(C)cc3)c2n1` [Compound 4f-A, 6-amino-2-(S(R)-ethylsulfonimidoyl)-9-(p-tolylmethyl)-7H-purin-8-one], the EC50 (human TLR7) was 110 nM.

With `CCOC(=O)C1=C(CN2CCN3C(=O)N(CC(C)(C)C(=O)O)C[C@@H]3C2)NC(c2nccs2)=N[C@H]1c1cccc(F)c1C` [Compound 5, 3-[(8aS)-7-[[(4S)-5-ethoxycarbonyl-4-(3-fluoro-2-methyl-phenyl)-2-thiazol-2-yl-1,4-dihydropyrimidin-6-yl]methyl]-3-oxo-5,6,8,8a-tetrahydro-1H-imidazo[1,5-a]pyrazin-2-yl]-2,2-dimethyl-propanoic acid] the “HBV DNA reduction” value (AAV-HBV; [3]) was “significant reduction”, the HBsAg reduction (AAV-HBV; [3]) was “significant reduction” and the “HBV DNA reduction” value (AAV-HBV; [2]) was “significant reduction”. The HBsAg reduction (AAV-HBV; [2]) was “significant reduction”.
